Experimental data: publication PMC3265130 (ACS Chemical Biology, 2011)
Residues, ends and D or L forms follow the SMILES beside them. *: point of attachment. 5FAM = O=C1OC2(c3ccc(O)cc3Oc3cc(O)ccc32)c2ccc(C(=O)*)cc21; Ahx = NCCCCCC(=O)O; X1 = CNCC*

Columns and labels:
L3MBTL1 3xMBT = biological target: T1, L3MBTL1 3xMBT (Homo sapiens, UniProt Q9Y468); type: binding; details: site H4K20me1
T1 sequence (Q9Y468 197-526 isoform Q9Y468-1): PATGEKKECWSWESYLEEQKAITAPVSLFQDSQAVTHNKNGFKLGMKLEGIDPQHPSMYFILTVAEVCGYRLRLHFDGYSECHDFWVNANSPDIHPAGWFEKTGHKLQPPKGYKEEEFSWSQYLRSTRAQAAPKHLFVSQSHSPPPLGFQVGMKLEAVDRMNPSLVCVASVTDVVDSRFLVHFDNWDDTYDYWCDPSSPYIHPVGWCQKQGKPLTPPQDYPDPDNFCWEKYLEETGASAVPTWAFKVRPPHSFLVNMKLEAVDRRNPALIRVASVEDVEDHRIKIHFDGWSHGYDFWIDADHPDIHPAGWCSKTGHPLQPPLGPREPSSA

53BP1 Tudor domain = 53BP1 Tudor domain (Homo sapiens, UniProt Q12888); assay: Fluorescence polarization binding of 53BP1 Tudor domain to histone H4 peptides; details: FP; result in words; methyl-lysine analogue peptide, site H4K20me2
Chain of 53BP1 Tudor domain (Q12888 1484-1603): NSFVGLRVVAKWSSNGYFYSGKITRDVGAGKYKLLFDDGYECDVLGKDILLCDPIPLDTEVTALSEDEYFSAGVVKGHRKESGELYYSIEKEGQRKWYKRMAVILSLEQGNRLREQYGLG

Molecule | ΔG(KCme) (L3MBTL1 3xMBT; FP, 25 °C, binding free energy, methyl-lysine analogue peptide) | ΔΔG(exp) (L3MBTL1 3xMBT; ΔG(KCme) – ΔG(Kme) from FP Kd) | binding to the methyl-lysine analogue containing target (53BP1 Tudor domain)
CC[C@H](C)[C@H](NC(=O)[C@H](CC(N)=O)NC(=O)[C@H](CC(=O)O)NC(=O)[C@H](CCCNC(=N)N)NC(=O)[C@H](CC(C)C)NC(=O)[C@@H](NC(=O)[C@H](CSCCNC)NC(=O)[C@H](CCCNC(=N)N)NC(=O)[C@H](Cc1c[nH]cn1)NC(=O)[C@H](CCCNC(=N)N)NC(=O)[C@H](CCCCN)NC(=O)[C@H](C)NC(=O)CNC(=O)CNC(=O)[C@H](CCCCN)NC(=O)CCCCCNC(=O)c1ccc2c(c1)C(=O)OC21c2ccc(O)cc2Oc2cc(O)ccc21)C(C)C)C(=O)N[C@@H](CCC(N)=O)C(N)=O [Fl-H4(12–27)KC20me1] ({5FAM-Ahx}-KGGAKRHRC(X1)VLRDNIQ-NH2) | –24.6 ± 0.2 kJ/mol | 5.1 ± 0.3 kJ/mol | 
fluoresceine-KGGAKRHRKC(me1)VLRDNIQ [Fl-H4(12–27)KC20me2] |  |  | no binding
